The values below come from patent publication US20020028849A1, “Use of retinol in assisted-reproduction protocols” (priority 2000, published 2002).

Series [1] relates to superovulated ewes (embryos recovered at the morula stage). Nature of the series: Experiment 1: retinoid treatment of superovulated ewes, in vitro development of recovered morula-stage embryos. In kind it is in vivo, sheep. The note with it: for embryo quality score (grade 1=excellent to 4=degenerate) immediately after collection / in vitro blastocyst formation / embryonic hatching rate in vitro: ROH 500,000 IU, RA 15 mg; for embryo quality score (grade 1=excellent to 4=degenerate) immediately after collection / in vitro blastocyst formation: CIS 15 mg on first and last day of FSH; for embryo quality score (grade 1=excellent to 4=degenerate) immediately after collection: morula stage; for in vitro blastocyst formation: morulae cultured 72 h in TCM 199; for embryonic hatching rate in vitro: CIS 15 mg, morulae cultured 72 h. How it is done: (§1) Referring now to FIGS. 1 and 2, a series of experiments were carried out to examine the effect of retinoid administration on superovulated sheep. In these experiments, the estrous cycles of sexually mature crossbred ewes were synchronized using progestin implants (Synchromate B) combined with prostaglandin F2-alpha (Lutalyse) injections, and superovulation was induced by multiple FSH injections. Briefly, animals were administered one progestin implant and 6 days later received two Lutalyse injections (15 mg i.m.) 12 hours apart. Superovulation was induced using a total of 24 units of FSH administered twice daily in decreasing doses over 3 days (5.5, 4.4, 3.3 units per injection, respectively) beginning 9-11 days after implant administration. Retinoid treatments were administered on the first and last day of FSH injections. Implants were removed at the time of the fifth FSH injection, and animals were checked for estrus 24 hours later. […] All animals were maintained on high-quality hay and fed ad libitum, with free-choice access to a sheep and goat mineral premix that contained 1 million IU vitamin A per pound.
In the first experiment, performed under decreasing day length (fall), 25 ewes were randomly assigned to one of the following treatments: (1) all-trans retinol (ROH; 500,000 IU, n=6); (2) all-trans retinoic acid (RA; 15 mg, n=6); (3) 9-cis retinoic acid (CIS; 15 mg, n=7); or (4) vehicle (Control; n=6), which was corn oil. Animals were surgically ovohysterectomized at 144 hours post-implant removal, and uteri were gently flushed twice with culture medium (tissue culture medium 199 [TCM 199]) to collect morula stage embryos. Two ewes from the RA group wer dropped from the study: one because of a total lack of response to the FSH treatment, the other because of overstimulation resulting in more than 50 ovulations with none of the ova fertilizing. This left 4 animals in the RA group, 5 in each of the ROH and Control groups, and 7 in the CIS group.
Embryos (morulae) collected in experiments 1 and 2 were categorized according to morphology, developmental stage, and quality based on a procedure developed for bovine embryos. See, Lindner and Wright, Theriogenology 1983; 20:407-416. Quality grades ranged from 1 to 4, with 1=excellent, 2=good, 3=poor, and 4=degenerate. One individual, who was unaware of treatments at the time, performed all of the grading.
In the first two experiments, morula-stage embryos were cultured in TCM 199 with Earle's salt supplemented with 10% FBS and 1 mM glutamine. See, Bavister BD. Studies on the developmental blocks in cultured hamster embryos. In: Bavister BD (ed.), The Mammalian Preimplantation Embryo: Regulation of Growth and Differentiation in vitro. New York:Plenum Press; 1987:219-249. The FBS had been twice stripped of low molecular weight molecules with charcoal, and retinol concentrations were below detection levels as determined by fluorescent analysis. See, Selvaraj and Susheela, Clin Chim Acta 1970; 27:165-170. In the third experiment, 1- to 4-cell embryos were cultured in SOF supplemented with 3 mg/ml BSA and essential and nonessential amino acids. See, Carolan et al., Theriogenology 1995; 43:1115-1128. Both media were prepared weekly, filtered through a 0.2 um filter, and allowed to equilibrate for 2 hours in a humidified atmosphere at 38.5° C. containing 5% CO2 in air.
Morula-stage embryos (experiments 1 and 2) were washed a minimum of three times in the outer well of organ culture dishes and then transferred with a minimum amount of medium into the inner well, which contained 3 ml of TCM 199. Embryos from each ewe were cultured in one dish, and there were no significant differences in the average number of embryos per dish between treatments. Embryos were cultured for 96 hours and observed daily for blastocyst formation and complete hatching from the zona pellucida. No further development was observed after 72 hours in culture, and all data presented reflect that time period. […]

Series [2] deals with recipient ewes receiving embryos from treated donor ewes. Nature of the series: Pregnancy rates after transfer of frozen embryos from retinol-treated superovulated ewes. In kind it is in vivo, sheep. The text has this: Twenty-four ewes were synchronized, superovulated and administered treatments, as described previously (Eberhardt, Will and Godkin. Biol Reprod 60, 1483-1487, 1999). Briefly, animals received a progestagen implant and six days later received two injections of prostaglandin F2-alpha (Lutalyse, Upjohn Co. Kalamazoo, Mich.) twelve hours apart. Superovulation was induced with 24 units of porcine follicle stimulating hormone (FSH, Sioux Biochemical, Sioux City, Iowa) in decreasing doses over 3 days beginning 9-11 days after implant administration. All-trans retinol was administered to twelve ewes in corn oil at 500,000 IU per injection on the first and last day of FSH injections. Control ewes (12) received corn oil without retinol.
Embryos at the morula stage of development (168 h post implant removal) were collected by gently flushing the uterus with phosphaste-buffered saline+2% bovine serum albumin (BSA) following surgical hysterectomy. Embryos were frozen by conventional methods (Leibo. Theriogenology 21: 767. 1984) using ethylene glycol as the cryoprotectant in a programmable freezer and stored in liquid N2. After three months, embryos were thawed briefly (30 seconds) at 37° C. and two embryos were transferred directly into the uterine horn of synchronized recipient ewes. Seven recipient ewes received embryos from retinol-treated ewes and 11 recipient ewes received embryos from control ewes. Pregnancy rates were determined by ultrasonography 30-40 days after transfer.

For series [3], the system named is superovulated ewes (embryos recovered at the morula stage). Nature of the series: Experiment 2: ROH treatment of superovulated ewes (winter), in vitro development of morula-stage embryos. Format: in vivo, sheep. How it is done:
as §1
The second experiment was a repetition of the first, with the exceptions that it was performed under increasing day length (winter) and only the ROH and Control treatments were administered (in combination with FSH) to 24 ewes (12 per treatment) not used in the previous experiment. One ewe from the Control group was dropped from the study for failure to respond to FSH treatment. […]
In the first two experiments, morula-stage embryos were cultured in TCM 199 with Earle's salt supplemented with 10% FBS and 1 mM glutamine. […] The FBS had been twice stripped of low molecular weight molecules with charcoal, and retinol concentrations were below detection levels as determined by fluorescent analysis. […]
(§2) Data were checked for normality and analyzed using the Statistical Analysis System (SAS Institute Inc., Cary, N.C.). […]

The test system of series [4] is in vitro produced bovine embryos (presumptive zygotes). Put plainly: In vitro retinol treatment of presumptive zygotes, blastocyst formation. In kind it is cell-based. The note with it: 7-8 days culture. How it is done: The effects of retinol and retinoic acid on early embryonic development of in vitro produced bovine embryos were investigated. Oocytes and their surrounding cumulus cells were collected from bovine ovaries, matured in vitro for 24 h and fertilized by standard procedures for 8-10 h. Presumptive zygotes were denuded of cumulus cells, washed and cultured in modified synthetic oviduct fluid (a standard culture medium) in the presence or absence of retinol ([…]) at 38.5° C. in a humidified atmosphere of 5% CO2 in air. Embryos were cultured for 7-8 days.
Blastocyst (a fluid filled ball of approximately 100 cells, containing a inner cell mass which gives rise to the fetus and a trophoblast which gives rise to the placenta) formation was used as an end point for in vitro development. The above experiment was performed three times using 210 embryos in each treatment group with 70 embryos/group (630 total, 210/treatment). Embryonic development to the blastocyst stage, expressed as % blastocyst/cleaved embryos, was control (no retinol)=28.33%, 1 uM Retinol=48.66%, 10 uM Retinol=57.33%.

The conditions of series [5]: cited from earlier work.
The test system of series [6] is superovulated ewes (1- to 4-cell embryos). Nature of the series: Experiment 3: ROH treatment of superovulated ewes, in vitro development of 1- to 4-cell embryos. Format: in vivo, sheep. The note with it: 1- to 4-cell embryos cultured in SOF. How it is done: as §1
The third study involved two identical experiments performed sequentially in the fall and winter. Results were not different between seasons, and the data were combined. A total of 24 ewes, not used in the previous experiments, received either ROH (n=12) or Control (n=12) treatment in combination with FSH, followed by natural mating at estrus, as in experiment 2. At 84 hours post-implant removal, ewes were salphincectomized and oviducts gently flushed with culture medium in order to recover 1- to 4-cell embryos.
In the first two experiments, morula-stage embryos were cultured in TCM 199 with Earle's salt supplemented with 10% FBS and 1 mM glutamine. See, Bavister BD. […] The FBS had been twice stripped of low molecular weight molecules with charcoal, and retinol concentrations were below detection levels as determined by fluorescent analysis. […]
as §2

Consider `CC1=C(/C=C/C(C)=C\C=C\C(C)=C\C(=O)O)C(C)(C)CCC1` [CIS, 9-cis retinoic acid], for which, in series [1], the “embryo quality score (grade 1=excellent to 4=degenerate) immediately after collection” value is 2.4±0.2, the “in vitro blastocyst formation” value came out at 33% and the “embryonic hatching rate in vitro” value turned out to be 38%.

Turning to `CC1=C(/C=C/C(C)=C/C=C/C(C)=C/C(=O)O)C(C)(C)CCC1` [RA, all-trans retinoic acid], in series [1], the “in vitro blastocyst formation” value is reported as 27% and the “embryonic hatching rate in vitro” value turned out to be 55%.

For the molecule `CC1=C(/C=C/C(C)=C/C=C/C(C)=C/CO)C(C)(C)CCC1` [ROH, all-trans retinol], in series [1], the “embryo quality score (grade 1=excellent to 4=degenerate) immediately after collection” value was determined as 1.9±0.1, the “in vitro blastocyst formation” value came out at 72% and the “embryonic hatching rate in vitro” value is 73%. For the same molecule, the “fold increase in in vitro blastocyst formation compared to RA, CIS or Control animals” value in series [1] (p<0.05) is on record as “greater than 2 fold”. Also, the “pregnancy rate of recipient ewes” value in series [2] (donors given 500,000 IU per injection on first and last day of FSH, two frozen-thawed embryos transferred, ultrasonography 30-40 days after transfer) is recorded as 86%. Moreover, the “number of the six pregnant recipient ewes carrying twins” value in series [2] (embryos from retinol-treated donor ewes) is recorded as “five”. In addition, the “survival of all transferred embryos” value in series [2] (embryos from retinol-treated donor ewes, 30-40 days after transfer) came out at 78.6%. Further, the “fold increase in hatching rate in comparison with vehicle treatment” value in series [3] is approximately 3 fold. In series [3] (ROH treatment of donor ewes, p<0.05), the hatching rate turned out to be 70%. For the same molecule, in series [3] (ROH treatment of donor ewes, winter, n=243 embryos), the “percentage of embryos that formed blastocysts” value amounted to 70%. For the same molecule, in series [4] (1 uM Retinol in modified synthetic oviduct fluid), the “embryonic development to the blastocyst stage, % blastocyst/cleaved embryos” value is listed as 48.66%. Moreover, the “embryonic development to the blastocyst stage, % blastocyst/cleaved embryos” value in series [4] (10 uM Retinol in modified synthetic oviduct fluid) came to 57.33%. Further, the “solubility in ethanol, methanol, ether, fats, and oil” value in series [5] (ethanol, methanol, ether, fats, oil) was “soluble”. In addition, the “solubility in water or aqueous salt solutions” value in series [5] (water or aqueous salt solutions) is listed as “practically insoluble”. Besides, the blastocyst hatching in series [6] is listed as 71%. Also, the blastocyst formation in series [6] (n=230 embryos, p<0.05) is 79%. Also, the “embryos that progressed through the 8-cell in vitro block” value in series [6] (p<0.05) worked out at 94%.
